Columns and labels:
Assay in all cases: Substrate hydrolysis on Columbia agar
[1] = test system: Aeromonas caviae; format: cell-based; parameters: key to the marks not given beside the values; conditions: Aeromonas caviae NCTC 10852; 300 mg/l; 18 hours
[2] = test system: P. vulgaris; format: cell-based; conditions: 300 mg/l, 18 hours
[3] = test system: Vibrio harveyi; format: cell-based; conditions: Vibrio harveyi NCTC 11346; 300 mg/l; 18 hours
[4] = test system: A. lwoffii; format: cell-based; conditions: A. lwoffii ATCC 15309; 300 mg/l; 18 hours
[5] = test system: Vibrio furnissii; format: cell-based; conditions: Vibrio furnissii NCTC 11218; 300 mg/l; 18 hours
[6] = test system: E. coli 0157; format: cell-based; conditions: 300 mg/l, 18 hours
[7] = test system: Serratia spp.; format: cell-based; conditions: 300 mg/l, 18 hours
[8] = test system: Streptococcus sanguis; format: cell-based; conditions: Streptococcus sanguis NCTC 7863; 300 mg/l; 18 hours
[9] = test system: Salmonella typhi; format: cell-based; conditions: Salmonella typhi NCTC 8385; 300 mg/l; 18 hours
[10] = test system: Enterococcus gellinarum; format: cell-based; conditions: Enterococcus gellinarum NCTC 11428; 300 mg/l; 18 hours
[11] = test system: Streptococcus crista; format: cell-based; conditions: Streptococcus crista NCTC 12479; 300 mg/l; 18 hours
[12] = test system: Aeromonas hydrophila; format: cell-based; parameters: key to the marks not given beside the values; conditions: Aeromonas hydrophila NCTC 8049; 300 mg/l; 18 hours
[13] = test system: C. diphtheriae; format: cell-based, Corynebacterium diphtheriae; conditions: 300 mg/l, 18 hours
[14] = test system: Streptococcus pneumoniae; format: cell-based; conditions: Streptococcus pneumoniae NCTC 7465; 300 mg/l; 18 hours
[15] = test system: Salmonella typhimurium; format: cell-based; conditions: Salmonella typhimurium NCTC 74; 300 mg/l; 18 hours
[16] = test system: P. mirabilis; format: cell-based; conditions: 300 mg/l, 18 hours
[17] = test system: Enterococcus raffinosis; format: cell-based; conditions: Enterococcus raffinosis NCTC 13192; 300 mg/l; 18 hours
[18] = test system: Vibrio anguillarum; format: cell-based; conditions: Vibrio anguillarum NCTC 12159; 300 mg/l; 18 hours
[19] = test system: Vibrio metschnikovii; format: cell-based; conditions: Vibrio metschnikovii NCTC 8443; 300 mg/l; 18 hours
[20] = test system: Streptococcus constellatus; format: cell-based; conditions: Streptococcus constellatus NCTC 11325; 300 mg/l; 18 hours
[21] = test system: Enterococcus durans; format: cell-based; conditions: Enterococcus durans NCTC 8307; 300 mg/l; 18 hours
[22] = test system: Vibrio cholerae; format: cell-based; conditions: 300 mg/l, 18 hours
[23] = test system: P. aeruginosa; format: cell-based; conditions: 300 mg/l, 18 hours
[24] = test system: Bacillus licusniforms; format: cell-based; conditions: Bacillus licusniforms NCIMB 9375; 300 mg/l; 18 hours
[25] = test system: Vibrio alcaligenes; format: cell-based; conditions: Vibrio alcaligenes NCTC 12160; 300 mg/l; 18 hours
[26] = test system: Listeria seerigeri; format: cell-based; conditions: Listeria seerigeri PHLS wild; 300 mg/l; 18 hours
[27] = test system: Streptococcus salivarius; format: cell-based; conditions: Streptococcus salivarius NCTC 8618; 300 mg/l; 18 hours
[28] = test system: C. diversus; format: cell-based; conditions: 300 mg/l, 18 hours
[29] = test system: Streptococcus milleri; format: cell-based; conditions: Streptococcus milleri wild; 300 mg/l; 18 hours
[30] = test system: Salmonella orthmarchen; format: cell-based; conditions: Salmonella orthmarchen SAX 59; 300 mg/l; 18 hours
[31] = test system: Enterococcus faecalis; format: cell-based; conditions: 300 mg/l, 18 hours
[32] = test system: A. baumanii; format: cell-based; conditions: A. baumanii ATCC 19606; 300 mg/l; 18 hours

3′,4′-dihydroxyflavone-4′-β-D-glucopyranoside sodium salt [DHF-glucoside]
−: Hydrolysis by Gram negative bacteria ([2]; P. vulgaris PVU 2) | Hydrolysis by Gram negative bacteria ([2]; P. vulgaris PVU 4) | Hydrolysis by Gram negative bacteria ([2]; P. vulgaris PVU 5) | Hydrolysis by Gram negative bacteria [4] | Hydrolysis by Gram negative bacteria [5] | Hydrolysis by Gram negative bacteria ([6]; E. coli 0157 NCTC 12079) | Hydrolysis by Gram negative bacteria ([6]; E. coli 0157 NCTC 12080) | Hydrolysis by Gram negative bacteria ([6]; E. coli 0157 NCTC 12900) | Hydrolysis by Gram negative bacteria ([6]; E. coli 0157 NCTC 13125) | Hydrolysis by Gram negative bacteria ([6]; E. coli 0157 NCTC 13126) | Hydrolysis by Gram negative bacteria ([6]; E. coli 0157 NCTC 13127) | Hydrolysis by Gram negative bacteria ([6]; E. coli 0157 NCTC 13128) | Hydrolysis by Gram positive organisms [8] | Hydrolysis by Gram negative bacteria [9] | Hydrolysis by Gram positive organisms [11] | Hydrolysis by Gram positive organisms ([13]; C. diphtheriae NCTC 3987) | Hydrolysis by Gram positive organisms ([13]; C. diphtheriae NCTC 10356) | Hydrolysis by Gram positive organisms ([13]; C. diphtheriae NCTC 11397) | Hydrolysis by Gram positive organisms ([13]; Corynebacterium diphtheria NEQAS) | Hydrolysis by Gram positive organisms [14] | Hydrolysis by Gram negative bacteria [15] | Hydrolysis by Gram negative bacteria ([16]; P. mirabilis NCTC 10975) | Hydrolysis by Gram negative bacteria ([16]; P. mirabilis PMI 1) | Hydrolysis by Gram negative bacteria ([16]; P. mirabilis PMI 2) | Hydrolysis by Gram negative bacteria [18] | Hydrolysis by Gram negative bacteria [19] | Hydrolysis by Gram positive organisms [20] | Hydrolysis by Gram negative bacteria ([22]; Vibrio cholera NCTC 6585) | Hydrolysis by Gram negative bacteria ([22]; Vibrio cholera NCTC 7270) | Hydrolysis by Gram negative bacteria ([22]; Vibrio cholera NCTC 8021) | Hydrolysis by Gram negative bacteria ([22]; Vibrio cholera NCTC 10732) | Hydrolysis by Gram negative bacteria ([22]; Vibrio cholera NCTC 12945) | Hydrolysis by Gram negative bacteria ([22]; Vibrio cholerae NCTC 7254) | Hydrolysis by Gram negative bacteria ([22]; Vibrio cholerae NCTC 8042) | Hydrolysis by Gram negative bacteria ([22]; Vibrio cholerae NCTC 10255) | Hydrolysis by Gram negative bacteria ([22]; Vibrio cholerae NCTC 10954) | Hydrolysis by Gram negative bacteria ([23]; P. aeruginosa ATCC 10145) | Hydrolysis by Gram negative bacteria ([23]; P. aeruginosa NCTC 10662) | Hydrolysis by Gram negative bacteria [25] | Hydrolysis by Gram negative bacteria ([28]; C. diversus CDI 1) | Hydrolysis by Gram negative bacteria ([28]; C. diversus CDI 2) | Hydrolysis by Gram positive organisms [29] | Hydrolysis by Gram negative bacteria [30] | Hydrolysis by Gram negative bacteria [32]
+: Hydrolysis by Gram negative bacteria [3] | Hydrolysis by Gram negative bacteria ([7]; Serratia spp. SEX 1) | Hydrolysis by Gram negative bacteria ([7]; Serratia spp. SEX 2) | Hydrolysis by Gram positive organisms [24]
++: Hydrolysis by Gram negative bacteria [1] | Hydrolysis by Gram positive organisms [10] | Hydrolysis by Gram negative bacteria [12] | Hydrolysis by Gram positive organisms [17] | Hydrolysis by Gram positive organisms [21] | Hydrolysis by Gram positive organisms [26] | Hydrolysis by Gram positive organisms [27] | Hydrolysis by Gram positive organisms ([31]; Enterococcus faecalis 1) | Hydrolysis by Gram positive organisms ([31]; Enterococcus faecalis 2) | Hydrolysis by Gram positive organisms ([31]; Enterococcus faecalis 3) | Hydrolysis by Gram positive organisms ([31]; Enterococcus faecalis 4) | Hydrolysis by Gram positive organisms ([31]; Enterococcus faecalis 5) | Hydrolysis by Gram positive organisms ([31]; Enterococcus faecalis 6) | Hydrolysis by Gram positive organisms ([31]; Enterococcus faecalis 7)
